Reference: ChEMBL document CHEMBL5046228 (Eur J Med Chem, 2022)
pIC50: −log10 of the molar value.

Legend:
[1] = Selectivity index, ratio of IC50 Inhibition of wild type EGFR (unknown origin) to IC50 for Inhibition of EGFR T790M/C797S double mutant (unknown origin)
NCI-H1975 [2] = experiment: Induction of cell cycle arrest in human NCI-H1975 cells assessed as accumulation at G0/G1 phase at 0.5 uM after 36 hrs by PI staining based flow cytometry analysis (reference value: 24.2%); assay type: functional
NCI-H1975 [3] = experiment: Induction of apoptosis in human NCI-H1975 cells assessed as increase in early apoptotic cells at 2.5 uM after 36 hrs by annexin-V-FITC/PI staining based flow cytometric analysis (reference value: 1.24%); assay type: functional
NCI-H1975 [4] = experiment: cells; assay type: functional, cell-based; conditions: Homo sapiens, NCI-H1975, 72 h
NCI-H1975 [5] = experiment: Induction of apoptosis in human NCI-H1975 cells assessed as increase in necrotic cells at 0.5 uM after 36 hrs by annexin-V-FITC/PI staining based flow cytometric analysis (reference value: 0.35%); assay type: functional
in vitro [6] = conditions: human
NCI-H1299 [7] = experiment: Induction of apoptosis in human NCI-H1299 cells assessed as increase in early apoptotic cells at 0.5 uM after 36 hrs by annexin-V-FITC/PI staining based flow cytometric analysis (reference value: 0.79%); assay type: functional
NCI-H1299 [8] = experiment: Induction of apoptosis in human NCI-H1299 cells assessed as increase in necrotic cells at 0.5 uM after 36 hrs by annexin-V-FITC/PI staining based flow cytometric analysis (reference value: 0.75%); assay type: functional
NCI-H1975 [9] = experiment: Induction of cell cycle arrest in human NCI-H1975 cells assessed as accumulation at G0/G1 phase at 0.1 uM after 36 hrs by PI staining based flow cytometry analysis (reference value: 24.2%); assay type: functional
A549 = experiment: Antiproliferative activity against human A549 cells expressing wild type EGFR assessed as inhibition in cell viability after 72 hrs by CCK8 assay; assay type: functional, cell-based; conditions: A549, 72 h
NCI-H1975 [10] = experiment: Induction of apoptosis in human NCI-H1975 cells assessed as increase in viable cells at 2.5 uM after 36 hrs by annexin-V-FITC/PI staining based flow cytometric analysis (reference value: 94.6%); assay type: functional
NCI-H1299 [11] = experiment: Induction of apoptosis in human NCI-H1299 cells assessed as increase in early apoptotic cells at 2.5 uM after 36 hrs by annexin-V-FITC/PI staining based flow cytometric analysis (reference value: 0.79%); assay type: functional
NCI-H1975 [12] = experiment: Induction of apoptosis in human NCI-H1975 cells assessed as increase in late apoptotic cells at 2.5 uM after 36 hrs by annexin-V-FITC/PI staining based flow cytometric analysis (reference value: 3.85%); assay type: functional
NCI-H1299 [13] = experiment: Induction of apoptosis in human NCI-H1299 cells assessed as increase in necrotic cells at 0.1 uM after 36 hrs by annexin-V-FITC/PI staining based flow cytometric analysis (reference value: 0.75%); assay type: functional
NCI-H1975 [14] = experiment: Induction of apoptosis in human NCI-H1975 cells assessed as increase in late apoptotic cells at 0.1 uM after 36 hrs by annexin-V-FITC/PI staining based flow cytometric analysis (reference value: 3.85%); assay type: functional
NCI-H1975 [15] = experiment: Induction of cell cycle arrest in human NCI-H1975 cells assessed as accumulation at G0/G1 phase at 2.5 uM after 36 hrs by PI staining based flow cytometry analysis (reference value: 24.2%); assay type: functional
NCI-H1975 [16] = experiment: Induction of apoptosis in human NCI-H1975 cells assessed as increase in viable cells at 0.1 uM after 36 hrs by annexin-V-FITC/PI staining based flow cytometric analysis (reference value: 94.6%); assay type: functional
NCI-H1975 [17] = experiment: Induction of cell cycle arrest in human NCI-H1975 cells assessed as accumulation at G2/M phase at 0.1 uM after 36 hrs by PI staining based flow cytometry analysis (reference value: 43.1%); assay type: functional
NCI-H1975 [18] = experiment: Induction of cell cycle arrest in human NCI-H1975 cells assessed as accumulation at S phase at 0.1 uM after 36 hrs by PI staining based flow cytometry analysis (reference value: 32.7 %); assay type: functional
in vitro [19] = conditions: human; remark: listed apart in the source
NCI-H1299 [20] = experiment: Induction of apoptosis in human NCI-H1299 cells assessed as increase in early apoptotic cells at 0.02 uM after 36 hrs by annexin-V-FITC/PI staining based flow cytometric analysis (reference value: 0.79%); assay type: functional
NCI-H1299 [21] = experiment: Induction of cell cycle arrest in human NCI-H1299 cells assessed as accumulation at S phase at 0.1 uM after 36 hrs by PI staining based flow cytometry analysis (reference value: 24.8%); assay type: functional
NCI-H1975 [22] = experiment: Induction of apoptosis in human NCI-H1975 cells assessed as increase in early apoptotic cells at 0.02 uM after 36 hrs by annexin-V-FITC/PI staining based flow cytometric analysis (reference value: 1.24%); assay type: functional
NCI-H1299 [23] = experiment: Induction of cell cycle arrest in human NCI-H1299 cells assessed as accumulation at G0/G1 phase at 2.5 uM after 36 hrs by PI staining based flow cytometry analysis (reference value: 70.2%); assay type: functional
NCI-H1299 [24] = experiment: Induction of apoptosis in human NCI-H1299 cells assessed as increase in necrotic cells at 0.02 uM after 36 hrs by annexin-V-FITC/PI staining based flow cytometric analysis (reference value: 0.75%); assay type: functional
NCI-H1975 [25] = experiment: Induction of apoptosis in human NCI-H1975 cells assessed as increase in necrotic cells at 2.5 uM after 36 hrs by annexin-V-FITC/PI staining based flow cytometric analysis (reference value: 0.35%); assay type: functional
NCI-H1299 [26] = experiment: Induction of cell cycle arrest in human NCI-H1299 cells assessed as accumulation at G0/G1 phase at 0.5 uM after 36 hrs by PI staining based flow cytometry analysis (reference value: 70.2%); assay type: functional
NCI-H1299 [27] = experiment: Induction of apoptosis in human NCI-H1299 cells assessed as increase in viable cells at 0.02 uM after 36 hrs by annexin-V-FITC/PI staining based flow cytometric analysis (reference value: 94.1%); assay type: functional
NCI-H1975 [28] = experiment: Induction of apoptosis in human NCI-H1975 cells assessed as increase in early apoptotic cells at 0.1 uM after 36 hrs by annexin-V-FITC/PI staining based flow cytometric analysis (reference value: 1.24%); assay type: functional
NCI-H1975 [29] = experiment: Induction of cell cycle arrest in human NCI-H1975 cells assessed as accumulation at G2/M phase at 0.5 uM after 36 hrs by PI staining based flow cytometry analysis (reference value: 43.1%); assay type: functional
NCI-H1299 [30] = experiment: Induction of cell cycle arrest in human NCI-H1299 cells assessed as accumulation at G2/M phase at 2.5 uM after 36 hrs by PI staining based flow cytometry analysis (reference value: 5.6%); assay type: functional
NCI-H1299 [31] = experiment: Induction of cell cycle arrest in human NCI-H1299 cells assessed as accumulation at G2/M phase at 0.5 uM after 36 hrs by PI staining based flow cytometry analysis (reference value: 5.6%); assay type: functional
NCI-H1975 [32] = experiment: Induction of cell cycle arrest in human NCI-H1975 cells assessed as accumulation at S phase at 0.5 uM after 36 hrs by PI staining based flow cytometry analysis (reference value: 32.7 %); assay type: functional

## C#CCN(C)CCN(C)c1cc(OC)c(Nc2nccc(Nc3cn(C)c4ccccc34)n2)cc1NC(=O)C=C
[1]
  Ratio IC50: > 2490
NCI-H1975 [2]
  Activity: 18.3%
NCI-H1975 [3]
  Activity: 45.4%
NCI-H1975 [4]
  pIC50: 8.59
NCI-H1975 [5]
  Activity: 0.021%
In vitro [6]
  selectivity ratio: 27500
NCI-H1299 [7]
  Activity: 1.01%
NCI-H1299 [8]
  Activity: 0.77%
NCI-H1975 [9]
  Activity: 19.1%
A549
  pIC50: < 4.00
NCI-H1975 [10]
  Activity: 47.3%
NCI-H1299 [11]
  Activity: 0.95%
NCI-H1975 [12]
  Activity: 7.25%
NCI-H1299 [13]
  Activity: 0.63%
NCI-H1975 [14]
  Activity: 3.3%
NCI-H1975 [15]
  Activity: 17%
NCI-H1975 [16]
  Activity: 92.2%
NCI-H1975 [17]
  Activity: 58.2%
NCI-H1975 [18]
  Activity: 22.7%
In vitro [19]
  selectivity ratio: 38800
NCI-H1299 [20]
  Activity: 1.05%
NCI-H1299 [21]
  Activity: 23.7%
NCI-H1975 [22]
  Activity: 1.98%
NCI-H1299 [23]
  Activity: 67.5%
NCI-H1299 [24]
  Activity: 0.65%
NCI-H1975 [25]
  Activity: 0.012%
NCI-H1299 [26]
  Activity: 68.4%
NCI-H1299 [27]
  Activity: 93.1%
NCI-H1975 [28]
  Activity: 4.45%
NCI-H1975 [29]
  Activity: 62.6%
NCI-H1299 [30]
  Activity: 7.8%
NCI-H1299 [31]
  Activity: 6%
NCI-H1975 [32]
  Activity: 19.1%
